According to patent US20070054916A1, “Aryl nitrogen-containing bicyclic compounds and methods of use” (Amgen Inc., priority 2004, published 2007):

Key:
[1] = system: production of TNF by monocytes activated with bacterial lipopolysaccharide (LPS); test: Lipopolysaccharide-activated monocyte TNF production assay; assay type: cell-based; conditions: Homo sapiens, read-out: IC50 values in the monocyte assay (LPS induced TNF release)
In short: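 Adherent human PBMC-derived monocytes (~70%) in DMEM/2% FCS were pre-incubated 60 min with nine two-fold compound dilutions, then stimulated with E. coli K532 LPS (added as 30 ng/ml solution) for 4 h at 37 °C. Supernatant TNF-α was measured by sandwich ELISA. IC50 was taken from a polynomial fit of TNF versus compound concentration.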

[2] = molecular target: LCK KD GST (225-509) (Homo sapiens, UniProt P06239); test: LCK Homogenous Time Resolved Flourescent (HTRF) kinase assay; conditions: average IC50 value in the human HTRF assay for the inhibition of the Lck kinase enzyme
Chain of LCK KD GST (225-509) (P06239 225-509): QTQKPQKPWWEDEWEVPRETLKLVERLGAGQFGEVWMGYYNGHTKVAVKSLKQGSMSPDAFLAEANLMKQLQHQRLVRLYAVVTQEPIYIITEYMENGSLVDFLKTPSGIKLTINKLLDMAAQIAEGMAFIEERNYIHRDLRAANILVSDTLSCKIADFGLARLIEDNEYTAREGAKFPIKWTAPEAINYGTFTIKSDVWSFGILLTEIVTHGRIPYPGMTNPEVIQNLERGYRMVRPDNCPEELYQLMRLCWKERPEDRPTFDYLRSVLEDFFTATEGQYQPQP

| SMILES | IC50 [1] | IC50 [2] |
| --- | --- | --- |
| COc1c(C(=O)Nc2cccc(C(F)(F)F)c2)cc(-c2ccc3nc(N)ncc3c2)c(OC)c1OC [Example 109, 5-(2-amino-6-quinazolinyl)-2,3,4-tris(methyloxy)-(trifluoromethyl)-N-(3-phenyl)benzamide] | ≤ 25 µM | ≤ 1 µM |
| CN(C)c1cccc2c(S(=O)(=O)Nc3cccc(-c4ccc5nc(N)ncc5c4)c3)cccc12 [Example 55, N-(3-(2-amino-6-quinazolinyl)phenyl)-5-(dimethylamino)-1-naphthalenesulfonamide] | ≤ 25 µM | ≤ 1 µM |
